Converted amounts (≈) assume the structure as drawn. Starred links: 1 amine or outer side, 2 acyl side, 3 side chain; linkers in the order of their positions; H or OH if unused. Positions of bridges follow the written chain, without caps; N, C: chain ends. Non-standard residues stand in square brackets, D forms with d. Residues, ends and D or L forms follow the SMILES beside them. *: point of attachment. X1 = NC1=N[C@@H]([C@H](N[*:1])C(=O)[*:2])C[C@H](O)N1; ΔAla(Z-3-ureido) = NC(=O)N/C=C(\N)C(=O)O; β3hOrn = NCCC[C@H](N)CC(=O)*; Dap = NC[C@H](N)C(=O)O

Data on five compounds can be found in patent publication US20100292137A1, “Antibiotics and Methods For Producing Them” (priority 2006, published 2010).

The test system of assay [1] is 70S ribosome (30S, 50S and 70S particles). The class given is binding, Mycobacterium smegmatis.
The test system of assay [2] is M. smegmatis. As to the kind of experiment: microbe, parasite or virus in culture. The class given is cell-based, Mycobacterium smegmatis.
The subject of assay [3] is E. coli DH1. Nature of the assay: microbe, parasite or virus in culture. The class given is cell-based. The settings on record: Escherichia coli, DH1, read-out: Minimal inhibitory concentrations.
Assay [4] concerns E. coli strain AS19. As to the kind of experiment: Agar plate MIC on hyperpermeable E. coli AS19. The settings on record: Escherichia coli.
Protocol: Escherichia coli strain DH1 was used for cloning and expressing recombinant tlyA, and was grown by standard techniques (Sambrook et al., 1989). The hyperpermeable E. coli strain AS19 (Sekiguchi and Iida, 1967) was additionally used to express tlyA.
Overnight cultures of E. coli DH1 and AS19 strains were diluted 10^5-fold and plated onto agar containing viomycin (US Pharmacopeia), capreomycin, kanamycin or rifampicin (Sigma) with concentrations increasing in two-fold steps. The agar plates were incubated at 37° C.; and after 22 h, MICs were scored as the lowest concentration at which no growth was observed.
The test system of assay [5] is S. coelicolor M145 and derived mutants. Type of assay: cell-based, Streptomyces coelicolor.
The test system of assay [6] is S. avermitilis MA4630. The class given is cell-based, Streptomyces avermitilis.
Assay [7] has as its system M. smegmatis. The settings on record: tlyA mutant P2U; cited from earlier work.

Take `NCCC[C@H](N)CC(=O)N[C@H]1CNC(=O)[C@H]([C@H]2C[C@H](O)NC(N)=N2)NC(=O)/C(=C/NC(N)=O)NC(=O)[C@H](CO)NC(=O)[C@H](CO)NC1=O` [viomycin] (β3hOrn-[Dap]SS[ΔAla(Z-3-ureido)][X1]; lactam 1-C): the “binding interactions with the ribosome (footprints)” value in assay [1] was “occur only when the ribosomal subunits are associated into 70S couples”. This compound also had an MIC in assay [2] (Mycolicibacterium smegmatis) of 20 to 40 mg/L (≈ 29.2 to 58.3 µM).

Consider `NC[C@H]1O[C@H](O[C@H]2[C@H](O)[C@@H](O[C@H]3O[C@H](CO)[C@@H](O)[C@H](N)[C@H]3O)[C@H](N)C[C@@H]2N)[C@H](O)[C@@H](O)[C@@H]1O` [kanamycin], for which the MIC in assay [3] worked out at 4 mg/L (≈ 8.26 µM).

Consider `CO[C@H]1/C=C/O[C@@]2(C)Oc3c(C)c(O)c4c(O)c(c(/C=N/N5CCN(C)CC5)c(O)c4c3C2=O)NC(=O)/C(C)=C\C=C\[C@H](C)[C@H](O)[C@@H](C)[C@@H](O)[C@@H](C)[C@H](OC(C)=O)[C@@H]1C` [rifampicin], for which the MIC in assay [4] was 0.1 mg/L (≈ 0.122 µM); in assay [3] it was 4 mg/L (≈ 4.86 µM).

capreomycin: the “binding interactions with the ribosome (footprints)” value in assay [1] was “occur only when the ribosomal subunits are associated into 70S couples”. For the same compound, in assay [5], the MIC value is 1 to 5 mg/L, the “capreomycin concentration above which the strain is unable to grow” value is 5 µg/mL, the “capreomycin concentration at which the strain grew very well” value came to 100 µg/mL and the “capreomycin concentration at which the strain still grows” value amounted to 100 µg/mL. In addition, in assay [5], the “capreomycin sensitivity after complementation” value is recorded as “regained capreomycin sensitivity” and the “resistance relative to parent M145” value was “more than 100 fold”. Moreover, the MIC value in assay [6] is 1 to 5 mg/L. In addition, the “MIC, minimal inhibitory concentration of capreomycin” value in assay [2] is under 10 mg/L.

For `NCC[C@H](O)C(=O)N[C@@H]1C[C@H](N)[C@@H](O[C@H]2O[C@H](CN)[C@@H](O)[C@H](O)[C@H]2O)[C@H](O)[C@H]1O[C@H]1O[C@H](CO)[C@@H](O)[C@H](N)[C@H]1O` [amikacin], the susceptibility entry in assay [7] was “susceptible”.
